Assays:
HSV-1 TK = assay: Substrate screen: phosphorylation of thymidine, TMP, GCV, ACV, dC, AZT by partially purified HSV-1 TKs; format: biochemical, herpes simplex virus type 1; conditions: for Product formation ACVMP: substrate ACV 50 μM; for Product formation AZTMP: substrate AZT 200 μM; for Product formation GCVMP: substrate GCV 50 μM; for Product formation TDP (TMPK activity): substrate TMP 20 μM; for Product formation dCMP: substrate dC 200 μM; for Product formation TMP: substrate thymidine 4 μM
Experimental: The activity of the purified HSV-1 TK was determined using the following standard reaction mixture for thymidine as a substrate (12): 3 μg of protein, 4 μM [^3H-methyl]thymidine (0.1 mCi/mmol), 20 mM potassium phosphate, pH 7.6, 1 mM DTT, 5 mM ATP, 5 mM MgCl2, 25 mM NaF, 40 mM KCl, and 0.5 mg/ml BSA in a total volume of 25 μl for 10 minutes at 37° C. To identify phosphorylated products, 20 μl of the reaction mixture was loaded onto a DE-81 filter and dried, washed once in 1 mM ammonium formate, twice more in 95% ethanol, and counted for radioactivity (12). Radioactivity was determined using an LKB 1214 Rackbeta liquid scintillation counter and corrected for background using controls with enzyme incubated in the absence of ATP. For TMPK activity, 20 μM [^3H-methyl]TMP was substituted for thymidine in the above assay mixture, and [^3H]TDP product was determined by separation from [^3H]TMP on thin layer PEI-cellulose plates developed in 0.35M LiCl (21). Amount of product converted to TDP was quantitated by scintillation counting of the excised TMP and TDP spots. The filter binding assay was used to quantitate the phosphorylation of [^3H]dC (200) μM and [^3H]AZT (200 μM) with the four enzymes. To compare relative enzymatic activities for [^3H]GCV (50 μM) and [^3H]ACV (50 μM), reactions were loaded onto small DE-52 columns packed in Pasteur pipettes as previously described (22).
As an initial screen for activity, each expressed HSV-1 TK enzyme was assayed for phosphorylation of the following substrates: thymidine (4 μM), TMP (20 μM), ACV (50 μM), GCV (50 μM), deoxycytidine (dC, 200 μM), or 3′-azido-2′,3′dideoxythymidine (AZT, 200 μM). Enzymatic conditions for optimal wild-type HSV-1 TK activities were utilized, thus results presented in Table 1 for each substrate were normalized to 100% values for comparative purposes. As expected, the wild-type Gln-125 HSV-1 TK efficiently phosphorylated each of these substrates. For each mutant, there was a striking decrease in their ability to phosphorylate pyrimidine nucleosides, and minimal TMPK activity for the TMP substrate.

HCT-116 cells = assay: MTT cell viability, sensitivity to GCV killing, HCT-116 cell lines expressing HSV-1 TKs; format: cell-based, human; conditions: HCT-116, GCV 0-5 μM, 4 days, FIG. 3B
Experimental: Cells were plated in triplicate and exposed to 0, 0.05, 0.5 or 5 μM GCV for four days. Cell viabilities were determined using MTT dye. […] FIG. 3A: NIH3T3 cell lines, FIG. 3B: HCT-116 cell lines; parental cells (noTK, dark bands); Asp125TK (Asp-#, brick band); Glu-125TK (Glu-#, cross-hatch bands); Asn-125TK (Asn-#, gray bands); wild-type HSV-1 TK (WT-#, striped bands).
A Moloney murine leukemia virus derived plasmid for the expression of HSV-TK, termed pLENTK, has been previously constructed (24). A unique BspEI-MluI restriction fragment within the HSV-TK sequence of pLENTK contains the Gln-125 mutation site. This fragment was removed from wild-type plasmid and replaced with the analogous fragments encoding each mutant. […] Along with wild-type HSV-1 TK plasmid, each mutant-TK plasmid was transfected individually into the murine fibroblast cell line, NIH 3T3, and the human colon tumor cell line, HCT-116, using lipofectin reagent (GIBCO/BRL) (2 μg plasmid, 14 μl lipid per 1×10^6 cells). Cells were maintained in RPMI 1640 media and selected with G418 (200 μg/ml for 2 weeks) as previously described (24). At least eight individual G418 resistant cell clones were picked and grown up for further characterization. Each clone was screened initially for growth inhibition by 25 μM GCV. Those clones that were sensitive were further analyzed for HSV-TK protein expression by Western blot analysis with a polyclonal, rabbit anti-HSV-TK antibody (a gift from Dr. Margaret Black). For each clone, cell numbers were normalized to 1×10^6, and equal protein loading was confirmed for each sample by gel staining. Blotted HSV-1 TK protein bands were visualized on film using ECL chromophore reagents (Amersham). For analysis of GCV sensitivity of different clones, NIH3T3 and HCT-116 cell sets were seeded in 96 well plates in 0.1 ml media (15,000 cells/well). The next day, a dose range of GCV (0.005 to 5 mM, n=3) was added in 0.1 ml media. After 4 days, MTT ([…]) was added for 1.5 hours, followed by DMSO solubilization of the cells and absorbance reading at 540 nm (25).
cDNA for each mutant was incorporated into a Moloney murine leukemia virus plasmid (24). The plasmids for wild-type HSV-1 TK and each mutant were individually transfected into either NIH3T3 cells or the human colon tumor cell line, HCT-116. Following drug selection in G418, individual cell clones were evaluated for sensitivity to GCV and relative levels of HSV-1 TK expression. Using an HSV-1 TK antibody and extracts normalized by protein and cell number, the relative expression levels of HSV-1 TK in each cell clone were determined.

| Substance | Metabolism of GCV and ACV (in words) (HSV-1 TK; GCV 50 μM, ACV 50 μM) | Product formation ACVMP (HSV-1 TK) | Product formation AZTMP (HSV-1 TK) | Product formation GCVMP (HSV-1 TK) | Product formation TDP (TMPK activity) (HSV-1 TK) | Product formation dCMP (HSV-1 TK) | Product formation TMP (HSV-1 TK) | Dose dependent cell killing by GCV (cell viability, MTT) (HCT-116 cells) | Dose dependent cell killing by GCV (cell viability, MTT) (HCT-116 cells; listed as Asn-125TK) | Dose dependent cell killing by GCV (cell viability, MTT) (HCT-116 cells; listed as Gln-125) | Dose dependent cell killing by GCV (cell viability, MTT) (HCT-116 cells; listed as wild-type) | Dose dependent cell killing by GCV (cell viability, MTT) (HCT-116 cells; listed as Glu-125 HSV-1 TK) | Dose dependent cell killing by GCV (cell viability, MTT) (HCT-116 cells; listed as Glu-125TK) |
| --- | --- | --- | --- | --- | --- | --- | --- | --- | --- | --- | --- | --- | --- |
| Asn-125 | retained most of these phosphorylation activities | 92 % of wild-type Gln-125 | 9 % of wild-type Gln-125 | 85 % of wild-type Gln-125 | 6 % of wild-type Gln-125 | 0.2 % of wild-type Gln-125 | 22 % of wild-type Gln-125 | as effective as wild-type HSV-1 TK | proportionally more cell killing |  |  |  |  |
| Gln-125 (WT): wild-type herpes simplex virus type 1 thymidine kinase with glutamine at position 125, parent enzyme [reference compound] |  | 100 % of wild-type Gln-125 | 100 % of wild-type Gln-125 | 100 % of wild-type Gln-125 | 100 % of wild-type Gln-125 | 100 % of wild-type Gln-125 | 100 % of wild-type Gln-125 |  |  | as effective as wild-type HSV-1 TK | proportionally more cell killing |  |  |
| Glu-125 |  | 7 % of wild-type Gln-125 | 48 % of wild-type Gln-125 | 5 % of wild-type Gln-125 | 7 % of wild-type Gln-125 | 0.2 % of wild-type Gln-125 | 43 % of wild-type Gln-125 |  |  |  |  | just as sensitive to GCV killing | cell viabilities dropped precipitously |
